Results from patent US10981932B2, “Macrocyclic indole derivatives” (Bayer Aktiengesellschaft, priority 2016, dated 2021).
Counter-ions that a name gives are not always drawn. Like-named read-outs stand apart in the source and are kept apart here.

Tests used:
MCL-1 = MCL-1 (Homo sapiens, UniProt Q07820); test: Protein-protein interaction assay MCL-1/Noxa BH3 peptide (MCL-1 assay), TR-FRET; assay type: binding; conditions: MBP-MCL-1 / Noxa BH3-derived peptide, median
Summary of the method: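 Inhibition values were normalized between DMSO controls with all reagents and controls lacking MCL-1. The binding competition used 1 nM MBP-MCL-1 in pH 7 Tris buffer containing 50 mM KF and 100 mM NaCl, with a 10 min compound preincubation at 22 °C.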

SUDHL5 [1] = test: Induction of caspase-3/7 activity (Caspase-Glo 3/7), SUDHL5; assay type: cell-based; conditions: caspase-3/7 induction, SUDHL5 cells, 3 h treatment, median
Summary of the method: (§1)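 Apoptosis induction measured as caspase-3/7 activity (Caspase-Glo 3/7) in DLBCL lines after 3 h treatment at 37 °C; EC50 derived relative to the reference compound's maximal induction, with C0 fixed at 1.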

SUDHL10 [2] = test: Induction of caspase-3/7 activity (Caspase-Glo 3/7), SUDHL10; assay type: cell-based; conditions: caspase-3/7 induction, SUDHL10 cells, 3 h treatment, median
Summary of the method: as §1

SUDHL5 [3] = test: Anti-proliferative effect (CellTiter-Glo, 72 h), SUDHL5; assay type: cell-based; conditions: SUDHL5 cells, antiproliferation, 72 h incubation, median, read-out: Antiproli SUDHL5 [M] (median)
Summary of the method: (§2)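 Luminescence from CellTiter-Glo, read 10 min after reagent addition, reports viable cell content after 72 h of compound treatment at 37 °C. A reference plate read at day 0 gives the starting baseline.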

SUDHL10 [4] = test: Induction of cytotoxicity (CellTiter-Glo, 5 h), SUDHL10
A2780 = test: Anti-proliferative effect (CellTiter-Glo, 72 h), A2780; assay type: cell-based; conditions: A2780 cells, median, read-out: IC50 antiproliferation assay A2780 [M] (median)
Summary of the method: as §2

SUDHL5 [5] = test: Induction of cytotoxicity (CellTiter-Glo, 5 h), SUDHL5
[6] = Homo sapiens, SU-DHL10, 5 h, read-out: Cytotox SUDHL10 [M] (median), SUDHL10 cells, cytotoxicity induction, CellTiter-Glo, 5 h incubation, median
[7] = Homo sapiens, SU-DHL-5, 5 h, read-out: Cytotox SUDHL5 [M] (median), SUDHL5 cells, cytotoxicity induction, CellTiter-Glo, 5 h incubation, median
[8] = read-out: Cytotox SUDHL5 [M] (median), SUDHL5 cells, cytotoxicity induction, CellTiter-Glo, 5 h incubation, median
[9] = read-out: Cytotox SUDHL10 [M] (median), SUDHL10 cells, cytotoxicity induction, CellTiter-Glo, 5 h incubation, median

Chain of MCL-1 (Q07820 whole entry): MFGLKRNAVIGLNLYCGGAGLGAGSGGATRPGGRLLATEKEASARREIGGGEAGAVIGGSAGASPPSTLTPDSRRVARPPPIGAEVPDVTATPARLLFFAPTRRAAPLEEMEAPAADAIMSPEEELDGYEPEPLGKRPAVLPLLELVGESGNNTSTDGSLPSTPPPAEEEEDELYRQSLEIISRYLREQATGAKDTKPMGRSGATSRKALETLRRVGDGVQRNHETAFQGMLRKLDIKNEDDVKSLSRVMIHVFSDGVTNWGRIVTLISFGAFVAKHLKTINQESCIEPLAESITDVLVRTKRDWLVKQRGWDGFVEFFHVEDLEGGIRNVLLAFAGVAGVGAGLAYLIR

| SMILES | IC50 (MCL-1) [µM] | EC50 (SUDHL5 [1]; Homo sapiens, SU-DHL-5, 3 h) [µM] | EC50 (SUDHL10 [2]; Homo sapiens, SU-DHL10, 3 h) [µM] | IC50 (SUDHL5 [3]; Homo sapiens, SU-DHL-5, 72 h) [M] | IC50 (SUDHL10 [4]; [6]) [M] | IC50 (A2780; Homo sapiens, A2780, 72 h) [M] | IC50 (SUDHL5 [5]; [7]) [M] | EC50 (SUDHL5 [1]) [µM] | IC50 (SUDHL5 [3]) [M] | IC50 (SUDHL5 [5]; [8]) [M] | EC50 (SUDHL10 [2]) [µM] | IC50 (SUDHL10 [4]; [9]) [M] | IC50 (A2780) [M] |
| --- | --- | --- | --- | --- | --- | --- | --- | --- | --- | --- | --- | --- | --- |
| Cn1nc(CCN2CCOCC2)c2c1COCCCCn1c(C(=O)O)c(CCCOc3cccc4ccccc34)c3cccc-2c31 (racemic) [Example 150, (rac)-1-methyl-3-[2-(morpholin-4-yl)ethyl]-7-[3-(naphthalen-1-yloxy)propyl]-1,10,11,12,13,15-hexahydropyrazolo[4′,3′:9,10][1,6]oxazacycloundecino[8,7,6-hi]indole-8-carboxylic Acid] | 0.00761 | > 33 | 28 | 2.11e-05 | > 3.3e-05 | > 3.3e-05 | 2.69e-05 | – | – | – | – | – | – |
| CCc1nn(C)c2c1-c1c(C)ccc3c(C(C)CCOc4cccc5ccccc45)c(C(=O)O)n(c13)CCCCOC2 (racemic) [Example 271, 3-ethyl-1,4-dimethyl-7-[4-(naphthalen-1-yloxy)butan-2-yl]-1,10,11,12,13,15-hexahydropyrazolo[4′,3′:9,10][1,6]oxazacycloundecino[8,7,6-hi]indole-8-carboxylic Acid] | 0.0306 | > 33 | > 33 | 1.27e-05 | > 3.3e-05 | 1.83e-05 | 3.28e-05 | – | – | – | – | – | – |
| Cc1nn(CC(F)(F)F)c2c1-c1cccc3c(CCCOc4cccc5c4CCCC5)c(C(=O)O)n(c13)CCCCOC2 (single isomer, unassigned; enantiomer 1) [Example 162, 3-methyl-7-[3-(5,6,7,8-tetrahydronaphthalen-1-yloxy)propyl]-1-(2,2,2-trifluoroethyl)-1,10,11,12,13,15-hexahydropyrazolo[4′,3′:9,10][1,6]oxazacycloundecino[8,7,6-hi]indole-8-carboxylic acid-N-ethylethanamine Salt (Enantiomer 1)] | 0.00761 | – | 23.2 | – | 2.3e-05 | 2.55e-05 | – | 5.35 | 6.96e-08 | 8.92e-06 | – | – | – |
| CCc1nn(C)c2c1-c1c(C)ccc3c(C(C)CCOc4cccc5cc(F)ccc45)c(C(=O)O)n(c13)CCCCOC2 (single isomer, unassigned) [Example 264, 3-ethyl-7-{4-[(6-fluoronaphthalen-1-yl)oxy]butan-2-yl}-1,4-dimethyl-1,10,11,12,13,15-hexahydropyrazolo[4′,3′:9,10][1,6]oxazacycloundecino[8,7,6-hi]indole-8-carboxylic Acid] | 0.132 | – | – | – | – | – | – | > 33 | 1.67e-05 | > 3.3e-05 | > 33 | > 3.3e-05 | 1.92e-05 |
| Cc1nn(CC(F)(F)F)c2c1-c1cccc3c(CCCOc4cccc5ccccc45)c(C(=O)O)n(c13)CCCCOC2 (racemic) [Example 109, (rac)-3-methyl-7-[3-(naphthalen-1-yloxy)propyl]-1-(2,2,2-trifluoroethyl)-1,10,11,12,13,15-hexahydropyrazolo[4′,3′:9,10][1,6]oxazacycloundecino[8,7,6-hi]indole-8-carboxylic acid] | 0.0111 | > 33 | > 33 | 1.56e-05 | > 3.3e-05 | 1.9e-05 | > 3.3e-05 | – | – | – | – | – | – |
| Cc1nn(C)c2c1-c1cccc3c(CCCOc4cccc5ccccc45)c(C(=O)O)n(c13)CCCOC2 (single isomer, unassigned; enantiomer 2) [Example 045, 9,11-dimethyl-1-[3-(naphthalen-1-yloxy)propyl]-5,6,8,9-tetrahydro-4H-pyrazolo[4′,3′:8,9][1,5]oxazecino[7,6,5-hi]indole-2-carboxylic acid-N-ethylethanamine Salt (Enantiomer 2)] | 0.0259 | – | – | – | – | – | – | > 33 | 5.73e-06 | 2.59e-05 | 32.7 | 2.89e-05 | 2.78e-05 |
| Cc1c2c(nn1C)COCCCn1c(C(=O)O)c(CCCOc3cccc4ccccc34)c3cccc-2c31 (single isomer, unassigned; enantiomer 1) [Example 064, 10,11-dimethyl-1-[3-(naphthalen-1-yloxy)propyl]-5,6,8,10-tetrahydro-4H-pyrazolo[4′,3′:8,9][1,5]oxazecino[7,6,5-h]indole-2-carboxylic acid-N-ethylethanamine Salt (Enantiomer 1)] | 0.0115 | – | 17.5 | – | 2.59e-05 | 3.14e-05 | – | 4.98 | 1.12e-05 | 7.53e-06 | – | – | – |
| CCc1c2c(nn1C)COCCCCn1c(C(=O)O)c(CCCOc3cccc4ccccc34)c3cccc-2c31 (single isomer, unassigned; enantiomer 2) [Example 149, 3-Ethyl-2-methyl-7-[3-(1-naphthyloxy)propyl]-2,10,11,12,13,15-hexahydropyrazolo[4′,3′:9,10][1,6]oxazacycloundecino[8,7,6-hi]indole-carboxylic acid-N-ethylethanamine Salt (Enantiomer 2)] | 0.0666 | – | – | – | – | – | – | > 33 | 1.26e-05 | > 3.3e-05 | > 33 | > 3.3e-05 | 2.84e-05 |
| COc1c2c(nn1C)COCCCCn1c(C(=O)O)c(CCCOc3cccc4ccccc34)c3cccc-2c31 (single isomer, unassigned) [Example 209, 3-methoxy-2-methyl-7-[3-(naphthalen-1-yloxy)propyl]-2,10,11,12,13,15-hexahydropyrazolo[4′,3′:9,10][1,6]oxazacycloundecino[8,7,6-hi]indole-8-carboxylate] | 0.025 | – | – | – | – | – | – | > 33 | 1.58e-05 | > 3.3e-05 | > 33 | > 3.3e-05 | 1.58e-05 |
| Cc1c2c(nn1C)COCCCn1c(C(=O)O)c(CCCOc3cccc4ccccc34)c3cccc-2c31 (single isomer, unassigned; enantiomer 2) [Example 065, 10,11-dimethyl-1-[3-(naphthalen-1-yloxy)propyl]-5,6,8,10-tetrahydro-4H-pyrazolo[4′,3′:8,9][1,5]oxazecino[7,6,5-hi]indole-2-carboxylic acid-N-ethylethanamine Salt (Enantiomer 2)] | 0.0393 | – | – | – | – | – | – | > 33 | 2.61e-05 | > 3.3e-05 | > 33 | > 3.3e-05 | > 3.3e-05 |
| CCn1nc(C2CC2)c2c1COCCCCn1c(C(=O)O)c(CCCOc3cccc4ccccc34)c3cccc-2c31 (single isomer, unassigned; enantiomer 1) [Example 089, 3-cyclopropyl-1-ethyl-7-[3-(naphthalen-1-yloxy)propyl]-1,10,11,12,13,15-hexahydropyrazolo[4′,3′:9,10][1,6]oxazacycloundecino[8,7,6-hi]indole-8-carboxylic acid-N-ethylethanamine Salt (Enantiomer 1)] | 0.00384 | – | 24.1 | 1.71e-05 | 3e-05 | > 3.3e-05 | – | 6.76 | – | 7e-06 | – | – | – |
| Cc1nn(C)c2c1-c1cccc3c(CCCOc4cccc5cc(Cl)ccc45)c(C(=O)O)n(c13)CCCCOC2 (single isomer, unassigned; enantiomer 2) [Example 042, 7-{3-[(6-chloronaphthalen-1-yl)oxy]propyl}-1,3-dimethyl-1,10,11,12,13,15-hexahydropyrazolo[4′3′:9,10][1,6]oxazacycloundecino[8,7,6-hi]indole-carboxylic acid-N-ethylethanamine Salt (Enantiomer 2)] | 0.0566 | – | – | – | – | – | – | > 33 | 4.97e-06 | > 3.3e-05 | > 33 | 3e-05 | 1.02e-05 |
| Cc1nn(C)c2c1-c1cccc3c(CCCOc4cccc5cc(F)ccc45)c(C(=O)O)n(c13)CCCOC2 (single isomer, unassigned; enantiomer 2) [Example 048, 1-{3-[(6-fluoronaphthalen-1-yl)oxy]propyl}-9,11-dimethyl-5,6,8,9-tetrahydro-4H-pyrazolo[4′,3′:8,9][1,5]oxazecino[7,6,5-hi]indole-2-carboxylic acid-N-ethylethanamine Salt (Enantiomer 2)] | 0.0136 | 13.2 | 17.8 | 4.84e-06 | 1.71e-05 | 1.01e-05 | 1.19e-05 | – | – | – | – | – | – |
